Legend:
[1] = test system: MDA-MB-231; experiment: cells; format: functional, cell-based; details: Homo sapiens, MDA-MB-231, 74 h
Description: Antiproliferative activity against human MDA-MB-231 cells assessed as inhibition of cell growth measured after 74 hrs by SRB assay

[2] = test system: A549; experiment: cells; format: functional, cell-based; details: Homo sapiens, A549, 74 h
Description: Antiproliferative activity against human A549 cells assessed as inhibition of cell growth measured after 74 hrs by SRB assay

[3] = test system: HeLa; experiment: cells; format: functional, cell-based; details: Homo sapiens, 74 h
Description: Antiproliferative activity against human HeLa cells assessed as inhibition of cell growth measured after 74 hrs by SRB assay

[4] = test system: HepG2; experiment: Antiproliferative activity against human HepG2 cells assessed as inhibition of cell growth measured after 74 hrs by SRB assay; format: functional, cell-based; details: HepG2, 74 h
[5] = target: 72 kDa type IV collagenase (Homo sapiens, UniProt P08253); experiment: Inhibition of MMP2 (unknown origin) using Mca-PLGLDpaAR fluorescent substrate incubated for 2 hrs by microplate reader method
Chain of 72 kDa type IV collagenase (P08253 whole entry): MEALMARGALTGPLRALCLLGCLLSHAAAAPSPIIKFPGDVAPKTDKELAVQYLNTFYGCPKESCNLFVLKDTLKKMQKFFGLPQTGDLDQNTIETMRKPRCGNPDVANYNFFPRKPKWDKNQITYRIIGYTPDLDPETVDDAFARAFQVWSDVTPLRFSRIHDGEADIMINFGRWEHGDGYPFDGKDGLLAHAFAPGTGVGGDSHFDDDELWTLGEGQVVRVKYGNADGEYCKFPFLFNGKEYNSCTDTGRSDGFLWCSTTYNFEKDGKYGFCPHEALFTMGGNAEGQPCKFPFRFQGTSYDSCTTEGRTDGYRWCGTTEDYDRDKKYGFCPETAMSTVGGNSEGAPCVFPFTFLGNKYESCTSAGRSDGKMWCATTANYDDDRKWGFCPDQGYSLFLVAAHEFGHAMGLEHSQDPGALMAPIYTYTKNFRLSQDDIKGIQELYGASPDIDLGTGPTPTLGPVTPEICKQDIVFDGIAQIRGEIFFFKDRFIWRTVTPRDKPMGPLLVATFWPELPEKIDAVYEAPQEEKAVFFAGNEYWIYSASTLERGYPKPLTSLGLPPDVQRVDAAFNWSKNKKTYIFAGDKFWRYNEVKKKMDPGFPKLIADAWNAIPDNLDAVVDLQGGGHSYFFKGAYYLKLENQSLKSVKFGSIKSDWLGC

[6] = test system: MDA-MB-231; experiment: Induction of apoptosis in human MDA-MB-231 cells assessed as necrotic cells at 10 uM incubated for 24 hrs by annexin V-FITC and PI staining based flow cytometry analysis (reference value: 0.68 %); format: functional
[7] = test system: MDA-MB-231; experiment: Induction of apoptosis in human MDA-MB-231 cells assessed as late apoptotic cells at 10 uM incubated for 24 hrs by annexin V-FITC and PI staining based flow cytometry analysis (reference value: 1.02 %); format: functional
[8] = test system: MDA-MB-231; experiment: Induction of apoptosis in human MDA-MB-231 cells assessed as early apoptotic cells at 10 uM incubated for 24 hrs by annexin V-FITC and PI staining based flow cytometry analysis (reference value: 4.66 %); format: functional
[9] = test system: MDA-MB-231; experiment: Induction of apoptosis in human MDA-MB-231 cells assessed as viable cells at 10 uM incubated for 24 hrs by annexin V-FITC and PI staining based flow cytometry analysis (reference value: 93.6 %); format: functional; details: read-out: Activity
[10] = test system: MDA-MB-231; experiment: Induction of cell cycle arrest in human MDA-MB-231 cells assessed as accumulation of cells in G1 phase at 10 uM incubated for 24 hrs by PI staining based flow cytometry analysis (reference value: 74.44 %); format: functional
[11] = test system: MDA-MB-231; experiment: Induction of cell cycle arrest in human MDA-MB-231 cells assessed as accumulation of cells in G2 phase at 10 uM incubated for 24 hrs by PI staining based flow cytometry analysis (reference value: 8.95 %); format: functional
[12] = test system: MDA-MB-231; experiment: Induction of cell cycle arrest in human MDA-MB-231 cells assessed as accumulation of cells in S phase at 10 uM incubated for 24 hrs by PI staining based flow cytometry analysis (reference value: 16.61 %); format: functional
[13] = test system: MDA-MB-231; experiment: Induction of cell cycle arrest in human MDA-MB-231 cells assessed as accumulation of cells in G2/G1 phase at 10 uM incubated for 24 hrs by PI staining based flow cytometry analysis (reference value: 1.80 %); format: functional

For `O=C1C=CC2(C=C1)OCC(=O)N2S(=O)(=O)c1ccccc1`, the IC50 [1] was > 10000 nM, the IC50 [2] was > 10000 nM and the IC50 [3] was > 10000 nM. The IC50 [4] was > 10000 nM.
With `N#Cc1cccc(S(=O)(=O)N2C(=O)COC23C=CC(=O)C=C3)c1` the IC50 [1] was > 10000 nM, the IC50 [2] was 1910 nM and the IC50 [3] was 180 nM. For the same compound, the IC50 [4] was > 10000 nM.
`CS(=O)(=O)N1C(=O)COC12C=CC(=O)C=C2` was tested, and the IC50 [1] was > 10000 nM, the IC50 [2] was > 10000 nM and the IC50 [3] was 7530 nM. The IC50 [4] was > 10000 nM.
For `Cc1ccccc1S(=O)(=O)N1C(=O)COC12C=CC(=O)C=C2`, the IC50 [1] was > 10000 nM, the IC50 [2] was > 10000 nM and the IC50 [3] was 3720 nM. It also gave an IC50 [4] of 750 nM.
`O=C1C=CC2(C=C1)OCC(=O)N2S(=O)(=O)c1ccccc1OC(F)(F)F` was tested, and the IC50 [1] was > 10000 nM, the IC50 [2] was > 10000 nM and the IC50 [3] was 140 nM. For the same compound, the IC50 [4] was > 10000 nM.
For `O=C1C=CC2(C=C1)OCC(=O)N2S(=O)(=O)c1ccccc1C(F)(F)F`, the IC50 [1] was > 10000 nM, the IC50 [2] was > 10000 nM and the IC50 [3] was 20 nM. It also gave an IC50 [4] of 590 nM.
`COc1ccc(S(=O)(=O)N(CC(=O)NO)CC(C)C)cc1` showed an IC50 [5] of 0.59 nM.
In the case of `Cc1ccc(S(=O)(=O)N2C(=O)C(C)OC23C=CC(=O)C=C3)cc1` (configuration not stated), the IC50 [1] is reported as 1100 nM, the IC50 [2] is reported as > 10000 nM and the IC50 [3] is reported as > 10000 nM. It also gave an IC50 [4] of 540 nM.
`CC1OC2(C=CC(=O)C=C2)N(S(=O)(=O)c2cccs2)C1=O` (configuration not stated) was tested, and the IC50 [1] was > 10000 nM, the IC50 [2] was > 10000 nM and the IC50 [3] was 270 nM. For the same compound, the IC50 [4] was > 10000 nM.
With `O=C1C=CC2(C=C1)OCC(=O)N2S(=O)(=O)c1ccc(C(F)(F)F)cc1` the IC50 [1] was 2100 nM, the IC50 [2] was > 10000 nM and the IC50 [3] was 770 nM. The IC50 [4] was 750 nM.
`COc1ccc(/C=C\c2cc(OC)c(OC)c(OC)c2)cc1O` [COMBRETASTATIN A4] gave an Activity [6] of 0.73%, an Activity [7] of 4.95% and an Activity [8] of 20.6%. For the same compound, the viability at 10 µM [9] was 73.7%, the Activity [10] was 8.4% and the Activity [11] was 91.6%. It also gave an Activity [12] of 0% and an Activity [13] of 1.8%.
For `O=C1C=CC2(C=C1)OCC(=O)N2S(=O)(=O)c1ccc(Br)s1`, the IC50 [1] was > 10000 nM, the IC50 [2] was 50 nM and the IC50 [3] was 30 nM. The IC50 [4] was 240 nM.
In the case of `CC(=O)O[C@H]1C(=O)[C@@]2(C)[C@H]([C@H](OC(=O)c3ccccc3)[C@]3(O)C[C@H](OC(=O)[C@H](O)[C@@H](NC(=O)c4ccccc4)c4ccccc4)C(C)=C1C3(C)C)[C@]1(OC(C)=O)CO[C@@H]1C[C@@H]2O` [PACLITAXEL], the IC50 [4] is reported as 13 nM.
In the case of `O=C1C=CC2(C=C1)OCC(=O)N2S(=O)(=O)c1ccc(N2CCCC2=O)cc1`, the IC50 [1] is reported as > 10000 nM, the IC50 [2] is reported as 5 nM and the IC50 [3] is reported as 880 nM. The IC50 [4] was > 10000 nM.
With `O=C1C=CC2(C=C1)OCC(=O)N2S(=O)(=O)c1ccc(Cl)cc1` the IC50 [1] was 2800 nM, the IC50 [2] was > 10000 nM and the IC50 [3] was > 10000 nM. For the same compound, the IC50 [4] was 860 nM.
For `O=C1C=CC2(C=C1)OCC(=O)N2S(=O)(=O)c1ccc(OC(F)(F)F)cc1`, the IC50 [1] was > 10000 nM, the IC50 [2] was 40 nM and the IC50 [3] was > 10000 nM. For the same compound, the IC50 [4] was > 10000 nM.
For `O=C1C=CC2(C=C1)OCC(=O)N2S(=O)(=O)c1cccc(C(F)(F)F)c1`, the IC50 [1] was > 10000 nM, the IC50 [2] was 9610 nM and the IC50 [3] was 570 nM. The IC50 [4] was > 10000 nM.
`COc1ccc(S(=O)(=O)N2C(=O)COC23C=CC(=O)C=C3)cc1` was tested, and the IC50 [1] was > 10000 nM, the IC50 [2] was > 10000 nM and the IC50 [3] was 880 nM. The IC50 [4] was 1620 nM.
With `O=C1C=CC2(C=C1)OCC(=O)N2S(=O)(=O)c1ccc(F)c(F)c1` the IC50 [1] was > 10000 nM, the IC50 [2] was 50 nM and the IC50 [3] was 30 nM. The IC50 [4] was > 10000 nM.
With `O=C1C=CC2(C=C1)OCC(=O)N2S(=O)(=O)c1ccc([N+](=O)[O-])cc1` the IC50 [1] was > 10000 nM, the IC50 [2] was > 10000 nM and the IC50 [3] was > 10000 nM. For the same compound, the IC50 [4] was > 10000 nM.
In the case of `O=C1C=CC2(C=C1)OCC(=O)N2S(=O)(=O)c1cccs1`, the IC50 [1] is reported as 20 nM, the IC50 [2] is reported as > 10000 nM and the IC50 [3] is reported as 3420 nM. The IC50 [4] was > 10000 nM.
